# Measurements: ChEMBL document CHEMBL4819138, “Promising anti-SARS-CoV-2 drugs by effective dual targeting against the viral and host proteases” (Bioorg Med Chem Lett, 2021)
# Legend:
# [1] = target: Replicase polyprotein 1ab (Severe acute respiratory syndrome coronavirus 2) (UniProt P0DTD1); experiment: Inhibition of SARS-CoV-2 papain-like protease at 100 microg/ml relative to control; settings: dose 100.0 µg/ml
# Fibroblast = experiment: Cytotoxicity against human fibroblasts cells assessed as cell growth inhibition by MTT assay; format: cell-based
# SARS-CoV-2 = experiment: Antiviral activity against SARS-CoV-2 NRC-03-nhCoV strain infected in Vero E6 cells; format: functional, organism-based; settings: Severe acute respiratory syndrome coronavirus 2, NRC-03-nhCoV, Vero C1008
# [2] = target: Replicase polyprotein 1ab (Severe acute respiratory syndrome coronavirus 2) (UniProt P0DTD1); experiment: Inhibition of SARS-CoV-2 main protease at 100 microg/ml relative to control; settings: dose 100.0 µg/ml
smiles,measurement,setting,value
COc1ccc(/C=C\C(=O)NC(=S)Nc2ccc(S(=O)(=O)NC(N)=O)cc2)cc1OC,inhibition,[1],> 40%
CCOC(=O)C(Cc1c[nH]c2ccccc12)NC(=O)CCC(=O)Nc1ccc(S(N)(=O)=O)cc1 (configuration not stated),inhibition,[1],> 40%
COc1cc(C(NC2=NC(=O)C(CC(=O)Nc3ccc(C(=O)O)cc3)S2)c2c(O)[nH]c(=O)[nH]c2=O)ccc1O (configuration not stated),IC50,Fibroblast,1670 nM
same,IC50,SARS-CoV-2,770 nM
same,inhibition,[1],56.4%
same,inhibition,[2],31%
O=C(CSc1nnc2c(n1)[nH]c1ccccc12)Nc1cccc(S(=O)(=O)N2CCOCC2)c1,inhibition,[1],> 40%
O=C(CSc1nnc(NC2CC2)s1)Nc1ccccc1C(=O)Nc1ccc2c(c1)OCO2,inhibition,[1],> 40%
same,inhibition,[2],26.4%
N=C(N/N=C/c1ccccc1O)c1nonc1NCNc1nonc1C(=N)N/N=C/c1ccccc1O,IC50,Fibroblast,410 nM
same,IC50,SARS-CoV-2,110 nM
COc1cc(CC(C)NCc2cc(NC(=O)c3ccccn3)cc(C(=O)N(C)C)c2)ccc1O (configuration not stated),inhibition,[1],> 40%
